Entries after “also recorded” stand apart in the source; their conditions may differ.
How the values were obtained:
[1] = test system: 2780CP, a cis-platin-resistant derivative of A2780; assay: MTT conversion assay, 2780CP; assay type: cell-based, human
Procedure: (§1) In particular, Enone-1 and Enone-2 were tested for cytotoxic activity in 17 cell lines representing a broad spectrum of human tumors. They include human colorectal carcinoma (Caco2, RKO, HCT15, HT29), liver (HepG2), lung (A549), ovarian carcinoma (A2780, 2780CP, AGE60, SKOV3), anaplastic large cell lymphoma (Mac1 and Mac2a), breast carcinoma (MDA-MB-231), cervical (HeLa), bladder cancer (VM-CUB-1), melanoma (BRO), and multiple myeloma (MR20).
(§2) Each assay was performed in triplicate and repeated in 2-3 independent experiments. Specifically, to measure cell survival, 20 μl of 10 mg/ml MTT (3-([…])-2,5-diphenyl tetrazolium bromide; Sigma) was added to each well and the plates were incubated at 37° C. in 5% CO2 for 3 hours. The supernatant was removed and the formed crystals were dissolved in 200 μl dimethyl sulphoxide. The plates were then analysed at 450 nm on a plate reader. Growth inhibition (reduction in survival) was calculated by expressing the differences in optical densities between treatment wells and control wells as a percentage of the control.
Resistance to platinum-based chemotherapy is a major problem in oncology that impacts therapeutic options and limits patient survival. This is relevant to several types of malignancy, including ovarian cancer where platinum resistance frequently occurs. As Enone-1 and 2 show efficacy in reducing survival of A2780 ovarian carcinoma cells, the drugs were also tested in 2780CP, a cis-platin-resistant derivative of A2780 [13].

[2] = test system: RKO colorectal carcinoma cells; assay: MTT conversion assay, RKO; assay type: cell-based, human; conditions: Homo sapiens, colon, 48 hrs treatment
Procedure: as §1, §2

HepG2 liver cells = assay: MTT conversion assay, HepG2; assay type: cell-based, human; conditions: Homo sapiens, 48 hrs treatment
Procedure: as §1, §2

[3] = test system: VM-CUB-1 bladder cancer cells; assay: MTT conversion assay, VM-CUB-1; assay type: cell-based, human; conditions: Homo sapiens, 48 hrs treatment
Procedure: as §1, §2

[4] = test system: mdm2, p21, bax and bbc3/puma; assay: RT-qPCR of p53 target genes in A2780 cells; assay type: cell-based, human; conditions: 2.5 μM
Procedure: (§3) FIG. 8: Enones induce the p53 pathway. […] Cell lysates were analyzed for p53 and GAPDH (loading control). (B) A2780 cells were cultured in the presence or absence of 2.5 μM for the indicated time points before being analyzed for p53 and GAPDH levels. (C) Treatment of A2780 cells with 2.5 μM Enone-2 results in the up-regulation of p53-regulated genes (*p<0.05; **p<0.01; ***p<0.001, n=4). (D) Induction of p53 accumulation in AGE60 ovarian carcinoma cells following 6 or 14 hr exposure to 2.5 μM Enone-2. (E) Enone-1 induces the p53 pathway in A2780 cells which were cultured in the presence of 2.5 μM of the drug and analyzed as in (B). (F) Treatment of A2780 cells with 2.5 μM Enone-2 results in the up-regulation of p53-regulated genes (*p<0.05; **p<0.01; ***p<0.001, n=3).
(§4) The effects of Enone-2 on p53 and p53-dependent transcription of cell cycle and cell death-associated genes was confirmed by immunoblotting for p53 and by reverse transcription qPCR (RT-qPCR) for mdm2, p21, bax and bbc3/puma, established p53 target genes.

[5] = test system: HCT15 colorectal carcinoma cells; assay: MTT conversion assay, HCT15; assay type: cell-based, human; conditions: Homo sapiens, HCT-15, HCT15, colon, 48 hrs treatment
Procedure: as §1, §2

[6] = test system: Mac1 anaplastic large cell lymphoma cells; assay: MTT conversion assay, Mac1; assay type: cell-based; conditions: Homo sapiens, Mac1, ALCL, 48 hrs treatment
Procedure: as §1, §2

[7] = test system: MR20 multiple myeloma cells; assay: MTT conversion assay, MR20; assay type: cell-based, human; conditions: Homo sapiens, Multiple myeloma cell, 48 hrs treatment
Procedure: as §1, §2

A549 lung cells = assay: MTT conversion assay, A549; assay type: cell-based, human; conditions: Homo sapiens, 48 hrs treatment
Procedure: as §1, §2

p53 [8] = assay: siRNA knockdown of Chek2 or Rpl11 and drug-induced p53 activation in A2780 cells; assay type: cell-based, human; conditions: A2780 transiently transfected with siRNAs
Procedure: FIG. 9. […] A2780 cells were cultured for 6 hrs in the presence of drug concentrations as indicated. (B) Effects of siRNA targeting RPL11 (siRPL11), Chek2 (siChek2) or the unrelated luciferase (Luci) genes on RPL11 and Chek2 mRNA levels quantified by RT-PCR. (C) Effects of siRpl11 on Enone-2 and oxaliplatin (OXA)-induced p53 activation. Expression levels relative to GAPDH are indicated; untreated controls (CNT) were given the arbitrary value of 1. […] Expression levels relative to GAPDH are indicated; untreated controls (CNT) were given the arbitrary value of 1.
To further validate this observation, A2780 cells were transiently transfected with siRNAs targeting Chek2 which is required for DDR-induced p53, or Rpl11 which is required for RS-mediated p53 activation. The efficacy and specificity of the knockdowns were confirmed by RT-qPCR (FIG. 9B).

[9] = test system: HT29 colorectal carcinoma cells; assay: MTT conversion assay, HT29; assay type: cell-based, human; conditions: Homo sapiens, HT-29, HT29, colon, 48 hrs treatment
Procedure: as §1, §2

[10] = test system: AGE60 ovarian carcinoma cells; assay: MTT conversion assay, AGE60; assay type: cell-based, human; conditions: Homo sapiens, Ovarian carcinoma cell, 48 hrs treatment
Procedure: as §1, §2

[11] = test system: MDA-MB-231 breast carcinoma cells; assay: MTT conversion assay, MDA-MB-231; assay type: cell-based, human; conditions: Homo sapiens, 48 hrs treatment
Procedure: as §1, §2

BRO melanoma cells = assay: MTT conversion assay, BRO; assay type: cell-based, human; conditions: Homo sapiens, 48 hrs treatment
Procedure: as §1, §2

[12] = test system: A2780 ovarian carcinoma cells; assay: Cell cycle analysis by propidium iodide flow cytometry; assay type: cell-based, human; conditions: 2.5 μM or 5 μM for 24 hours
Procedure: The effect of Enone-2 on cell cycle progression was tested to determine if it causes cell cycle arrest, in addition to inducing cell death. To this end, A2780 ovarian carcinoma cells were treated with 2.5 μM or 5 μM Enone-2 for 24 hours, cells were detached, fixed in 1% Neutral Buffered Formalin and stained with 5 μg/ml propidium iodide. Cell suspensions were next analyzed for fluorescence intensities (DNA content) by quantitative flow cytometry.

p53 [13] = assay: p53 immunoblot in AGE60 cells; assay type: cell-based, human; conditions: 2.5 μM, 6 or 14 hr
Procedure: as §3, §4

[14] = test system: A2780 ovarian carcinoma cells; assay: MTT conversion assay, A2780; assay type: cell-based, human; conditions: Homo sapiens, 48 hrs treatment
Procedure: as §1, §2

IC50 ([1]; Homo sapiens, A2780, 2780CP, ovarian, cis-platin-resistant, 48 hrs treatment, MTT): 700 nM
IC50 [2]: 1200 nM
IC50 (HepG2 liver cells): 3000 nM
IC50 [3]: 800 nM
IC50 [5]: 900 nM
IC50 [6]: 1800 nM
IC50 [7]: 100 nM
IC50 (A549 lung cells): 1500 nM
IC50 [9]: 900 nM
IC50 [10]: 1200 nM
IC50 [11]: 2500 nM
IC50 (BRO melanoma cells): 3800 nM
IC50 [14]: 500 nM
SMILES: C[C@@]1(O)C=CC(=O)[C@H]1c1ccc(F)c2ccccc12 (stereo in doubt) [Enone-2, 5-(4-fluoronaphthalen-1-yl)-4-hydroxy-4-methylcyclopent-2-en-1-one]
sensitivity of 2780CP cells compared with cis-platin-sensitive A2780 cells ([1]; MTT conversion assays): nearly as sensitive; also recorded: remain sensitive
mdm2, p21, bax and bbc3/puma mRNA (p53-dependent gene expression) [4]: time-dependent upregulation
effect of Chek2 or Rpl11 siRNA knockdown on drug-induced p53 activation (p53 [8]): only Rpl11 knockdown that affected Enone-2 mediated p53 activation
cell cycle progression (DNA content) [12]: accumulation of cells in the G2/M phase of the cell cycle in a concentration dependent manner
p53 accumulation (immunoblot) (p53 [13]): robust p53 accumulation

Source: patent US20250268844A1, “ANTICANCER AGENTS BASED ON CYCLOPENTENONES” (UNIVERSITY OF CRETE, priority 2022, published 2025)
